Laboratory results from paper PMC3702004, “Comparison of Intake and Systemic Relative Effect Potencies of Dioxin-like Compounds in Female Mice after a Single Oral Dose” (Environmental Health Perspectives, 2013).
Read-outs that look alike come from different tables or passages of the source.

How the values were obtained:
[1] = Compound analysis: liver, adipose and plasma concentrations 3 days after a single oral dose; assay type: in vivo, female C57BL/6 mice; conditions: for Liver:adipose ratio: based on ng/g tissue, day 3; for concentration at 3 days: female, C57BL/6, mouse, in vivo, po
[2] = Body and organ weight, hepatic lipid content; assay type: in vivo, female C57BL/6 mice; conditions: day 3; for % lipid / g liver: pooled liver samples
[3] = oral dose 0.5 µg/kg bw, 3 days after single oral dose
[4] = oral dose 2.5 µg/kg bw, 3 days after single oral dose
[5] = oral dose 10 µg/kg bw, 3 days after single oral dose
[6] = oral dose 25 µg/kg bw, 3 days after single oral dose
[7] = oral dose 100 µg/kg bw, 3 days after single oral dose

## Clc1cc2c(cc1Cl)Oc1c(cc(Cl)c(Cl)c1Cl)O2 [PeCDD, 1,2,3,7,8-pentachlorodibenzodioxin]
[1]; 3 days after single oral dose, Table 1 doses
  liver:adipose ratio (hepatic sequestration criterion 0.3): > 0.3
[1]; dose 0.5 μg/kg BW
  Liver:adipose ratio: 4.4±0.9
[1]; dose 2.5 μg/kg BW
  Liver:adipose ratio: 7.0±1.1
[1]; dose 10 μg/kg BW
  Liver:adipose ratio: 6.7±1.4
[1]; 0.5 µg/kg bw, oral dose 0.5 µg/kg bw, 3 days after single oral dose, read-out: Adipose concentration
  concentration at 3 days: 0.9 ± 0.2 ng/g
[1]; 0.5 µg/kg bw, oral dose 0.5 µg/kg bw, 3 days after single oral dose, read-out: Liver concentration
  concentration at 3 days: 4 ± 0.7 ng/g
[1]; 2.5 µg/kg bw, oral dose 2.5 µg/kg bw, 3 days after single oral dose, read-out: Adipose concentration
  concentration at 3 days: 3.8 ± 0.7 ng/g
[1]; 2.5 µg/kg bw, oral dose 2.5 µg/kg bw, 3 days after single oral dose, read-out: Liver concentration
  concentration at 3 days: 27 ± 6 ng/g
[1]; 10 µg/kg bw, oral dose 10 µg/kg bw, 3 days after single oral dose, read-out: Adipose concentration
  concentration at 3 days: 16 ± 5 ng/g
[1]; 10 µg/kg bw, oral dose 10 µg/kg bw, 3 days after single oral dose, read-out: Liver concentration
  concentration at 3 days: 103 ± 23 ng/g
[1]; 10 µg/kg bw, oral dose 10 µg/kg bw, 3 days after single oral dose, read-out: Plasma concentration
  concentration at 3 days: 0.032 ng/g
[1]; 25 µg/kg bw, oral dose 25 µg/kg bw, 3 days after single oral dose, read-out: Plasma concentration
  concentration at 3 days: 0.052 ng/g
[1]; 100 µg/kg bw, oral dose 100 µg/kg bw, 3 days after single oral dose, read-out: Plasma concentration
  concentration at 3 days: 0.298 ng/g
[1]; [3]
  Adipose % dose / g tissue: 9.3 % dose / g tissue
  Adipose concentration: 1.1 ± 0.2 ng/g lipid
  Liver % dose / g tissue: 40 % dose / g tissue
  Liver concentration: 85 ± 14 ng/g lipid
  Plasma % dose / g tissue: 0.037 % dose / g tissue
[1]; [4]
  Adipose % dose / g tissue: 7.7 % dose / g tissue
  Adipose concentration: 4.3 ± 0.8 ng/g lipid
  Liver % dose / g tissue: 54 % dose / g tissue
  Liver concentration: 446 ± 96 ng/g lipid
  Plasma % dose / g tissue: 0.024 % dose / g tissue
[1]; [5]
  Adipose % dose / g tissue: 8.0 % dose / g tissue
  Adipose concentration: 19 ± 6 ng/g lipid
  Liver % dose / g tissue: 51 % dose / g tissue
  Liver concentration: 1669 ± 378 ng/g lipid
  Plasma % dose / g tissue: 0.016 % dose / g tissue
  Plasma concentration: 19 ± 7 ng/g lipid
[1]; [6]
  Plasma % dose / g tissue: 0.010 % dose / g tissue
  Plasma concentration: 30 ± 2 ng/g lipid
[1]; [7]
  Plasma % dose / g tissue: 0.015 % dose / g tissue
  Plasma concentration: 157 ± 21 ng/g lipid
[2]; oral dose 0.5 µg/kg bw
  Body weight: 18.6 ± 1.3 gram
  Liver weight: 4.56 ± 0.34 % of bw
  Spleen weight: 0.30 ± 0.02 % of bw
  Thymus weight: 0.21 ± 0.03 % of bw
  % lipid / g liver: 4.7%
[2]; oral dose 2.5 µg/kg bw
  Body weight: 19.4 ± 1.1 gram
  Liver weight: 5.02 ± 0.26 % of bw
  Spleen weight: 0.31 ± 0.03 % of bw
  Thymus weight: 0.29 ± 0.04 % of bw
  % lipid / g liver: 6.0%
[2]; oral dose 10 µg/kg bw
  Body weight: 18.9 ± 1.2 gram
  Liver weight: 5.32 ± 0.43 % of bw
  Spleen weight: 0.32 ± 0.04 % of bw
  Thymus weight: 0.23 ± 0.06 % of bw
  % lipid / g liver: 6.2%
[2]; oral dose 25 µg/kg bw
  Body weight: 19.4 ± 1.5 gram
  Liver weight: 5.26 ± 0.27 % of bw
  Spleen weight: 0.32 ± 0.04 % of bw
  Thymus weight: 0.26 ± 0.05 % of bw
[2]; oral dose 100 µg/kg bw
  Body weight: 18.8 ± 1.1 gram
  Liver weight: 5.83 ± 0.50 % of bw
  Spleen weight: 0.33 ± 0.04 % of bw
  Thymus weight: 0.24 ± 0.05 % of bw
[2]; single oral dose
  Dose with significant increase in liver weight vs vehicle controls: ≥ 100 µg/kg BW
